# Measured values taken from PubChem BioAssay (NCI).
#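 Exposure lasted 48 hours, with cells grown in 96-well plates and compounds tested at five concentrations. Here, GI50 denotes the concentration required for 50% inhibition of growth. TGI: concentration producing complete growth inhibition.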
# Columns and labels:
# Assay in all cases: NCI-60 cell line screen, 48 h
# SK-MEL-2 melanoma = test system: SK-MEL-2 melanoma
# CAKI-1 renal = test system: CAKI-1 renal
# RXF 393 renal = test system: RXF 393 renal
# EKVX NSCLC = test system: EKVX NSCLC
# LOX IMVI melanoma = test system: LOX IMVI melanoma
# A498 renal = test system: A498 renal
# HCT-15 colon = test system: HCT-15 colon
# OVCAR-4 ovarian = test system: OVCAR-4 ovarian
# T-47D breast = test system: T-47D breast
# HCC-2998 colon = test system: HCC-2998 colon
# OVCAR-8 ovarian = test system: OVCAR-8 ovarian
# COLO 205 colon = test system: COLO 205 colon
# HT29 colon = test system: HT29 colon
# HS 578T breast = test system: HS 578T breast
# MCF7 breast = test system: MCF7 breast
# SN12C renal = test system: SN12C renal
# SF-295 CNS = test system: SF-295 CNS
# MDA-MB-231 breast = test system: MDA-MB-231 breast
# CCRF-CEM leukemia = test system: CCRF-CEM leukemia
# NCI-H226 lung = test system: NCI-H226 lung
# OVCAR-5 ovarian = test system: OVCAR-5 ovarian
# MDA-MB-435 = test system: MDA-MB-435
# HOP-62 NSCLC = test system: HOP-62 NSCLC
# 786-0 renal = test system: 786-0 renal
# HL-60(TB) leukemia = test system: HL-60(TB) leukemia
# NCI-H460 lung = test system: NCI-H460 lung
# HOP-92 NSCLC = test system: HOP-92 NSCLC
# OVCAR-3 ovarian = test system: OVCAR-3 ovarian
# M14 melanoma = test system: M14 melanoma
# HCT-116 colon = test system: HCT-116 colon
# MALME-3M melanoma = test system: MALME-3M melanoma
# K-562 leukemia = test system: K-562 leukemia
# SF-539 CNS = test system: SF-539 CNS
# SW-620 colon = test system: SW-620 colon
# SK-MEL-5 melanoma = test system: SK-MEL-5 melanoma
# NCI-H23 lung = test system: NCI-H23 lung
# SK-OV-3 ovarian = test system: SK-OV-3 ovarian
# UACC-62 melanoma = test system: UACC-62 melanoma
# UACC-257 melanoma = test system: UACC-257 melanoma
# TK-10 renal = test system: TK-10 renal
# UO-31 renal = test system: UO-31 renal
# ACHN renal = test system: ACHN renal
# NCI-H522 lung = test system: NCI-H522 lung
# NCI/ADR-RES ovarian = test system: NCI/ADR-RES ovarian
# U251 CNS = test system: U251 CNS
# RPMI-8226 leukemia = test system: RPMI-8226 leukemia
# A549 NSCLC = test system: A549 NSCLC
# SK-MEL-28 melanoma = test system: SK-MEL-28 melanoma
# SF-268 CNS = test system: SF-268 CNS
# SR leukemia = test system: SR leukemia
# KM12 colon = test system: KM12 colon
# SNB-75 CNS = test system: SNB-75 CNS
# SNB-19 CNS = test system: SNB-19 CNS
# PC-3 prostate = test system: PC-3 prostate
# MOLT-4 leukemia = test system: MOLT-4 leukemia
# IGROV1 ovarian = test system: IGROV1 ovarian
# DU-145 prostate = test system: DU-145 prostate
# BT-549 breast = test system: BT-549 breast
structure (smiles),measurement,setting,value
O=C1/C(=C/c2ccccc2[N+](=O)[O-])COc2ccc(O)c(O)c21,GI50,SK-MEL-2 melanoma,2.18 µM
same,TGI,SK-MEL-2 melanoma,5.99 µM
same,GI50,CAKI-1 renal,0.607 µM
same,TGI,CAKI-1 renal,1.99 µM
same,GI50,RXF 393 renal,0.357 µM
same,TGI,RXF 393 renal,1.46 µM
same,GI50,EKVX NSCLC,2.51 µM
same,TGI,EKVX NSCLC,10.8 µM
same,GI50,LOX IMVI melanoma,0.307 µM
same,TGI,LOX IMVI melanoma,1.3 µM
same,GI50,A498 renal,2.11 µM
same,TGI,A498 renal,5.07 µM
same,GI50,HCT-15 colon,0.286 µM
same,TGI,HCT-15 colon,1.15 µM
same,GI50,OVCAR-4 ovarian,0.857 µM
same,TGI,OVCAR-4 ovarian,2.29 µM
same,GI50,T-47D breast,0.918 µM
same,TGI,T-47D breast,4.72 µM
same,GI50,HCC-2998 colon,1.56 µM
same,TGI,HCC-2998 colon,3.16 µM
same,GI50,OVCAR-8 ovarian,0.525 µM
same,TGI,OVCAR-8 ovarian,18.6 µM
same,GI50,COLO 205 colon,0.71 µM
same,TGI,COLO 205 colon,2.57 µM
same,GI50,HT29 colon,0.529 µM
same,TGI,HT29 colon,3.35 µM
same,GI50,HS 578T breast,2.05 µM
same,TGI,HS 578T breast,12.6 µM
same,GI50,MCF7 breast,0.409 µM
same,TGI,MCF7 breast,3.02 µM
same,GI50,SN12C renal,0.679 µM
same,TGI,SN12C renal,6.05 µM
same,GI50,SF-295 CNS,3.26 µM
same,TGI,SF-295 CNS,11.1 µM
same,GI50,MDA-MB-231 breast,0.799 µM
same,TGI,MDA-MB-231 breast,2.68 µM
same,GI50,CCRF-CEM leukemia,0.365 µM
same,TGI,CCRF-CEM leukemia,> 50 µM
same,GI50,NCI-H226 lung,3.97 µM
same,TGI,NCI-H226 lung,25.2 µM
same,GI50,OVCAR-5 ovarian,1.69 µM
same,TGI,OVCAR-5 ovarian,3.66 µM
same,GI50,MDA-MB-435,0.691 µM
same,TGI,MDA-MB-435,2.38 µM
same,GI50,HOP-62 NSCLC,3.55 µM
same,TGI,HOP-62 NSCLC,14.5 µM
same,GI50,786-0 renal,0.805 µM
same,TGI,786-0 renal,4.74 µM
same,GI50,HL-60(TB) leukemia,0.745 µM
same,TGI,HL-60(TB) leukemia,8.13 µM
same,GI50,NCI-H460 lung,1.38 µM
same,TGI,NCI-H460 lung,4.94 µM
same,GI50,HOP-92 NSCLC,1.1 µM
same,TGI,HOP-92 NSCLC,2.9 µM
same,GI50,OVCAR-3 ovarian,0.295 µM
same,TGI,OVCAR-3 ovarian,0.976 µM
same,GI50,M14 melanoma,0.797 µM
same,TGI,M14 melanoma,2.89 µM
same,GI50,HCT-116 colon,0.297 µM
same,TGI,HCT-116 colon,1.1 µM
same,GI50,MALME-3M melanoma,0.866 µM
same,TGI,MALME-3M melanoma,3 µM
same,GI50,K-562 leukemia,0.428 µM
same,TGI,K-562 leukemia,> 100 µM
same,GI50,SF-539 CNS,1.21 µM
same,TGI,SF-539 CNS,2.99 µM
same,GI50,SW-620 colon,0.353 µM
same,TGI,SW-620 colon,1.44 µM
same,GI50,SK-MEL-5 melanoma,1.53 µM
same,TGI,SK-MEL-5 melanoma,3.02 µM
same,GI50,NCI-H23 lung,1.54 µM
same,TGI,NCI-H23 lung,5.22 µM
same,GI50,SK-OV-3 ovarian,3.91 µM
same,TGI,SK-OV-3 ovarian,14.3 µM
same,GI50,UACC-62 melanoma,0.864 µM
same,TGI,UACC-62 melanoma,2.4 µM
same,GI50,UACC-257 melanoma,1.42 µM
same,TGI,UACC-257 melanoma,4.06 µM
same,GI50,TK-10 renal,1.22 µM
same,TGI,TK-10 renal,3.32 µM
same,GI50,UO-31 renal,0.295 µM
same,TGI,UO-31 renal,2.03 µM
same,GI50,ACHN renal,0.278 µM
same,TGI,ACHN renal,0.863 µM
same,GI50,NCI-H522 lung,0.208 µM
same,TGI,NCI-H522 lung,0.509 µM
same,GI50,NCI/ADR-RES ovarian,1.23 µM
same,TGI,NCI/ADR-RES ovarian,13.6 µM
same,GI50,U251 CNS,0.922 µM
same,TGI,U251 CNS,5.76 µM
same,GI50,RPMI-8226 leukemia,0.421 µM
same,TGI,RPMI-8226 leukemia,> 41.3 µM
same,GI50,A549 NSCLC,2.61 µM
same,TGI,A549 NSCLC,12.4 µM
same,GI50,SK-MEL-28 melanoma,1.33 µM
same,TGI,SK-MEL-28 melanoma,2.97 µM
same,GI50,SF-268 CNS,1.18 µM
same,TGI,SF-268 CNS,4.58 µM
same,GI50,SR leukemia,0.476 µM
same,TGI,SR leukemia,> 100 µM
same,GI50,KM12 colon,1.55 µM
same,TGI,KM12 colon,3.72 µM
same,GI50,SNB-75 CNS,1.46 µM
same,TGI,SNB-75 CNS,6.17 µM
same,GI50,SNB-19 CNS,2.45 µM
same,TGI,SNB-19 CNS,9.53 µM
same,GI50,PC-3 prostate,0.814 µM
same,TGI,PC-3 prostate,4.89 µM
same,GI50,MOLT-4 leukemia,0.431 µM
same,TGI,MOLT-4 leukemia,> 21.8 µM
same,GI50,IGROV1 ovarian,0.73 µM
same,TGI,IGROV1 ovarian,2.55 µM
same,GI50,DU-145 prostate,0.807 µM
same,TGI,DU-145 prostate,2.36 µM
same,GI50,BT-549 breast,0.882 µM
same,TGI,BT-549 breast,4.02 µM
N=c1oc2ccccc2cc1C(=O)Nc1nccs1,TGI,SK-MEL-2 melanoma,65.4 µM
same,TGI,CAKI-1 renal,> 88.1 µM
same,TGI,RXF 393 renal,> 83.9 µM
same,TGI,EKVX NSCLC,> 79.5 µM
same,TGI,LOX IMVI melanoma,7.71 µM
same,TGI,A498 renal,> 100 µM
same,TGI,HCT-15 colon,> 100 µM
same,TGI,OVCAR-4 ovarian,> 74.2 µM
same,TGI,T-47D breast,> 84 µM
same,TGI,HCC-2998 colon,> 100 µM
same,TGI,OVCAR-8 ovarian,> 92.4 µM
same,TGI,COLO 205 colon,45.6 µM
same,TGI,HT29 colon,> 100 µM
same,TGI,HS 578T breast,> 100 µM
same,TGI,MCF7 breast,> 100 µM
same,TGI,SN12C renal,> 100 µM
same,TGI,SF-295 CNS,> 100 µM
same,TGI,MDA-MB-231 breast,> 86.3 µM
same,TGI,CCRF-CEM leukemia,20 µM
same,TGI,NCI-H226 lung,> 92.3 µM
same,TGI,OVCAR-5 ovarian,> 100 µM
same,TGI,MDA-MB-435,> 100 µM
same,TGI,HOP-62 NSCLC,64.7 µM
same,TGI,786-0 renal,6.3 µM
same,TGI,HL-60(TB) leukemia,5.92 µM
same,TGI,NCI-H460 lung,> 76.5 µM
same,TGI,HOP-92 NSCLC,> 100 µM
same,TGI,OVCAR-3 ovarian,43.3 µM
same,TGI,M14 melanoma,> 100 µM
same,TGI,HCT-116 colon,> 100 µM
same,TGI,MALME-3M melanoma,> 100 µM
same,TGI,K-562 leukemia,> 100 µM
same,TGI,SW-620 colon,> 100 µM
same,TGI,SK-MEL-5 melanoma,> 100 µM
same,TGI,NCI-H23 lung,> 100 µM
same,TGI,SK-OV-3 ovarian,> 83.4 µM
same,TGI,UACC-62 melanoma,> 100 µM
same,TGI,UACC-257 melanoma,> 95.3 µM
same,TGI,TK-10 renal,> 50.7 µM
same,TGI,UO-31 renal,0.22 µM
same,TGI,ACHN renal,26.8 µM
same,TGI,NCI-H522 lung,3.82 µM
same,TGI,NCI/ADR-RES ovarian,> 100 µM
same,TGI,U251 CNS,> 100 µM
same,TGI,RPMI-8226 leukemia,50.5 µM
same,TGI,A549 NSCLC,> 100 µM
same,TGI,SK-MEL-28 melanoma,> 100 µM
same,TGI,SF-268 CNS,> 100 µM
same,TGI,SR leukemia,47.7 µM
same,TGI,KM12 colon,> 100 µM
same,TGI,SNB-75 CNS,99 µM
same,TGI,SNB-19 CNS,> 100 µM
same,TGI,PC-3 prostate,> 100 µM
same,TGI,MOLT-4 leukemia,22.1 µM
same,TGI,IGROV1 ovarian,> 49.2 µM
same,TGI,DU-145 prostate,> 79.4 µM
same,TGI,BT-549 breast,> 100 µM
